According to patent publication US12590134B2, “GLP-1 agonist polypeptide compound and salt thereof, synthesis method therefor and use thereof” (Sinopep-Allsino Biopharmaceutical Co., Ltd., priority 2020, dated 2026):
Numbered stars: 1 amine (or outer) side, 2 acyl side, 3 side chain; on linkers, the order of the positions; unused ones are H or OH. Square brackets hold non-standard residues; d marks the D form. Side chains are listed from the residue outwards. Peptide text beside a SMILES is read from it. * marks the point of attachment. C18 diacid = O=C(O)CCCCCCCCCCCCCCCCC(=O)*; γGlu = O=C(O)[C@H](CCC(=O)[*:2])N[*:1]; Ac4c(3-oxa) = NC1(C(=O)O)COC1; dNle = CCCC[C@@H](N)C(=O)O; dAbu = CC[C@@H](N)C(=O)O; Abu = CC[C@H](N)C(=O)O; AEEA = NCCOCCOCC(=O)O

target: human GLP-1R (Homo sapiens, UniProt P43220); assay: cAMP signal analysis of GLP-1R (GLP-1 receptor agonist activity); format: cell-based; conditions: CHO cell line stably expressing human GLP-1R; downstream cAMP signal, LANCE cAMP kit; read-out: GLP-1R EC50
Description: A wild human GLP-1R (NM_002062.5) was subjected to transient transfection and screened for two weeks by 600 μg/ml of hygromycin-B to obtain a cell line which was recombined and integrated into an FlpInCHO (Invitrogen) cell stable expression system. The culture condition of the FlpInCHO cell was as follows: 10% of heat-inactivated fetal calf serum was added to a DMEM culture solution, and the culture was performed in a 5% carbon dioxide cell incubator.
In the test, an LANCE cAMP detection kit was used for measuring the cAMP signal intensity.

Sequence of human GLP-1R (P43220 24-463): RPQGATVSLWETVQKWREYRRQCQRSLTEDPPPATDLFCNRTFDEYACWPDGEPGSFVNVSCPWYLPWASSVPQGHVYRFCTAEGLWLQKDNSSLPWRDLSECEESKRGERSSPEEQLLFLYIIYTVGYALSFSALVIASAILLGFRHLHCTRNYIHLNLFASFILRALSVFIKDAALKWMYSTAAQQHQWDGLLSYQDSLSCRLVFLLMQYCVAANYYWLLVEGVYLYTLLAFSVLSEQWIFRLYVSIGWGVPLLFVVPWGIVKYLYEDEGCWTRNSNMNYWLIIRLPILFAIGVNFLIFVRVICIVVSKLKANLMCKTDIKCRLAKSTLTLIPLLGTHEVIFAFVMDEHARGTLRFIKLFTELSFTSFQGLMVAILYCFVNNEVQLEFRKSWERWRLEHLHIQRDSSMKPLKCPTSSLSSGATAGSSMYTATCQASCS

Row | SMILES | EC50 [nM]
1 | CC[C@H](C)[C@H](NC(=O)[C@H](Cc1ccccc1)NC(=O)[C@H](CCC(=O)O)NC(=O)[C@H](CCCCNC(=O)COCCOCCNC(=O)COCCOCCNC(=O)CC[C@H](NC(=O)CCCCCCCCCCCCCCCCC(=O)O)C(=O)O)NC(=O)[C@H](C)NC(=O)[C@H](C)NC(=O)[C@H](CCC(N)=O)NC(=O)[C@@](C)(CC)NC(=O)[C@H](CCC(=O)O)NC(=O)[C@H](CC(C)C)NC(=O)[C@H](Cc1ccc(O)cc1)NC(=O)[C@H](CO)NC(=O)[C@H](CO)NC(=O)[C@@H](NC(=O)[C@H](CC(=O)O)NC(=O)[C@H](CO)NC(=O)[C@@H](NC(=O)[C@H](Cc1ccccc1)NC(=O)[C@@H](NC(=O)CNC(=O)[C@H](CCC(=O)O)NC(=O)[C@@](C)(CC)NC(=O)[C@@H](N)Cc1c[nH]cn1)[C@@H](C)O)[C@@H](C)O)C(C)C)C(=O)N[C@@H](C)C(=O)N[C@@H](Cc1c[nH]c2ccccc12)C(=O)N[C@@H](CC(C)C)C(=O)N[C@H](C(=O)N[C@@H](CCCNC(=N)N)C(=O)NCC(=O)N[C@@H](CCCNC(=N)N)C(=O)NCC(=O)O)C(C)C [NO: 1] | 91.7 ± 9.69
2 | CC[C@H](NC(=O)[C@H](CCC(=O)O)NC(=O)[C@H](CC(C)C)NC(=O)[C@H](Cc1ccc(O)cc1)NC(=O)[C@H](CO)NC(=O)[C@H](CO)NC(=O)[C@@H](NC(=O)[C@H](CC(=O)O)NC(=O)[C@H](CO)NC(=O)[C@@H](NC(=O)[C@H](Cc1ccccc1)NC(=O)[C@@H](NC(=O)CNC(=O)[C@H](CCC(=O)O)NC(=O)[C@H](CC)NC(=O)[C@@H](N)Cc1c[nH]cn1)[C@@H](C)O)[C@@H](C)O)C(C)C)C(=O)N[C@@H](CCC(N)=O)C(=O)N[C@@H](C)C(=O)N[C@@H](C)C(=O)N[C@@H](CCCCNC(=O)COCCOCCNC(=O)COCCOCCNC(=O)CC[C@H](NC(=O)CCCCCCCCCCCCCCCCC(=O)O)C(=O)O)C(=O)N[C@@H](CCC(=O)O)C(=O)N[C@@H](Cc1ccccc1)C(=O)N[C@H](C(=O)N[C@@H](C)C(=O)N[C@@H](Cc1c[nH]c2ccccc12)C(=O)N[C@@H](CC(C)C)C(=O)N[C@H](C(=O)N[C@@H](CCCNC(=N)N)C(=O)NCC(=O)N[C@@H](CCCNC(=N)N)C(=O)NCC(=O)O)C(C)C)[C@@H](C)CC [NO: 7] (H-H[Abu]EGTFTSDVSSYLE[Abu]QAAK([AEEA-AEEA-γGlu-C18 diacid])EFIAWLVRGRG-OH) | 8.8 ± 1.41
3 | CCSC[C@@H](NC(=O)[C@H](CCC(=O)O)NC(=O)[C@H](CC(C)C)NC(=O)[C@H](Cc1ccc(O)cc1)NC(=O)[C@H](CO)NC(=O)[C@H](CO)NC(=O)[C@@H](NC(=O)[C@H](CC(=O)O)NC(=O)[C@H](CO)NC(=O)[C@@H](NC(=O)[C@H](Cc1ccccc1)NC(=O)[C@@H](NC(=O)CNC(=O)[C@H](CCC(=O)O)NC(=O)[C@@H](CSCC)NC(=O)[C@@H](N)Cc1c[nH]cn1)[C@@H](C)O)[C@@H](C)O)C(C)C)C(=O)N[C@@H](CCC(N)=O)C(=O)N[C@@H](C)C(=O)N[C@@H](C)C(=O)N[C@@H](CCCCNC(=O)COCCOCCNC(=O)COCCOCCNC(=O)CC[C@H](NC(=O)CCCCCCCCCCCCCCCCC(=O)O)C(=O)O)C(=O)N[C@@H](CCC(=O)O)C(=O)N[C@@H](Cc1ccccc1)C(=O)N[C@H](C(=O)N[C@@H](C)C(=O)N[C@@H](Cc1c[nH]c2ccccc12)C(=O)N[C@@H](CC(C)C)C(=O)N[C@H](C(=O)N[C@@H](CCCNC(=N)N)C(=O)NCC(=O)N[C@@H](CCCNC(=N)N)C(=O)NCC(=O)O)C(C)C)[C@@H](C)CC [NO: 11] (H-H[dC](Et)EGTFTSDVSSYLE[dC](Et)QAAK([AEEA-AEEA-γGlu-C18 diacid])EFIAWLVRGRG-OH) | 8.1 ± 0.507

The next molecules have a lower EC50 than those just listed; values first:

Row | EC50 [nM] | SMILES
4 | 0.915 ± 0.126 | CC[C@H](C)[C@H](NC(=O)[C@H](Cc1ccccc1)NC(=O)[C@H](CCC(=O)O)NC(=O)[C@H](CCCCNC(=O)COCCOCCNC(=O)COCCOCCNC(=O)CC[C@H](NC(=O)CCCCCCCCCCCCCCCCC(=O)O)C(=O)O)NC(=O)[C@H](C)NC(=O)[C@H](C)NC(=O)[C@H](CCC(N)=O)NC(=O)C1(NC(=O)[C@H](CCC(=O)O)NC(=O)[C@H](CC(C)C)NC(=O)[C@H](Cc2ccc(O)cc2)NC(=O)[C@H](CO)NC(=O)[C@H](CO)NC(=O)[C@@H](NC(=O)[C@H](CC(=O)O)NC(=O)[C@H](CO)NC(=O)[C@@H](NC(=O)[C@H](Cc2ccccc2)NC(=O)[C@@H](NC(=O)CNC(=O)[C@H](CCC(=O)O)NC(=O)C2(NC(=O)[C@@H](N)Cc3c[nH]cn3)COC2)[C@@H](C)O)[C@@H](C)O)C(C)C)COC1)C(=O)N[C@@H](C)C(=O)N[C@@H](Cc1c[nH]c2ccccc12)C(=O)N[C@@H](CC(C)C)C(=O)N[C@H](C(=O)N[C@@H](CCCNC(=N)N)C(=O)NCC(=O)N[C@@H](CCCNC(=N)N)C(=O)NCC(=O)O)C(C)C [NO: 5] (H-H[Ac4c(3-oxa)]EGTFTSDVSSYLE[Ac4c(3-oxa)]QAAK([AEEA-AEEA-γGlu-C18 diacid])EFIAWLVRGRG-OH)
5 | 0.675 ± 0.067 | CC[C@@H](NC(=O)[C@H](CCC(=O)O)NC(=O)[C@H](CC(C)C)NC(=O)[C@H](Cc1ccc(O)cc1)NC(=O)[C@H](CO)NC(=O)[C@H](CO)NC(=O)[C@@H](NC(=O)[C@H](CC(=O)O)NC(=O)[C@H](CO)NC(=O)[C@@H](NC(=O)[C@H](Cc1ccccc1)NC(=O)[C@@H](NC(=O)CNC(=O)[C@H](CCC(=O)O)NC(=O)[C@@H](CC)NC(=O)[C@@H](N)Cc1c[nH]cn1)[C@@H](C)O)[C@@H](C)O)C(C)C)C(=O)N[C@@H](CCC(N)=O)C(=O)N[C@@H](C)C(=O)N[C@@H](C)C(=O)N[C@@H](CCCCNC(=O)COCCOCCNC(=O)COCCOCCNC(=O)CC[C@H](NC(=O)CCCCCCCCCCCCCCCCC(=O)O)C(=O)O)C(=O)N[C@@H](CCC(=O)O)C(=O)N[C@@H](Cc1ccccc1)C(=O)N[C@H](C(=O)N[C@@H](C)C(=O)N[C@@H](Cc1c[nH]c2ccccc12)C(=O)N[C@@H](CC(C)C)C(=O)N[C@H](C(=O)N[C@@H](CCCNC(=N)N)C(=O)NCC(=O)N[C@@H](CCCNC(=N)N)C(=O)NCC(=O)O)C(C)C)[C@@H](C)CC [NO: 9] (H-H[dAbu]EGTFTSDVSSYLE[dAbu]QAAK([AEEA-AEEA-γGlu-C18 diacid])EFIAWLVRGRG-OH)
6 | 5.59 ± 0.575 | CCCC[C@@H](NC(=O)[C@H](CCC(=O)O)NC(=O)[C@H](CC(C)C)NC(=O)[C@H](Cc1ccc(O)cc1)NC(=O)[C@H](CO)NC(=O)[C@H](CO)NC(=O)[C@@H](NC(=O)[C@H](CC(=O)O)NC(=O)[C@H](CO)NC(=O)[C@@H](NC(=O)[C@H](Cc1ccccc1)NC(=O)[C@@H](NC(=O)CNC(=O)[C@H](CCC(=O)O)NC(=O)[C@@H](CCCC)NC(=O)[C@@H](N)Cc1c[nH]cn1)[C@@H](C)O)[C@@H](C)O)C(C)C)C(=O)N[C@@H](CCC(N)=O)C(=O)N[C@@H](C)C(=O)N[C@@H](C)C(=O)N[C@@H](CCCCNC(=O)COCCOCCNC(=O)COCCOCCNC(=O)CC[C@H](NC(=O)CCCCCCCCCCCCCCCCC(=O)O)C(=O)O)C(=O)N[C@@H](CCC(=O)O)C(=O)N[C@@H](Cc1ccccc1)C(=O)N[C@H](C(=O)N[C@@H](C)C(=O)N[C@@H](Cc1c[nH]c2ccccc12)C(=O)N[C@@H](CC(C)C)C(=O)N[C@H](C(=O)N[C@@H](CCCNC(=N)N)C(=O)NCC(=O)N[C@@H](CCCNC(=N)N)C(=O)NCC(=O)O)C(C)C)[C@@H](C)CC [NO: 13] (H-H[dNle]EGTFTSDVSSYLE[dNle]QAAK([AEEA-AEEA-γGlu-C18 diacid])EFIAWLVRGRG-OH)
